{"source": "patent US20170217976A1", "about": "“6-(AMINO ACID)-MORPHINAN DERIVATIVES IN COMBINATION WITH PERMEATION […] FOR USE AS AN ORALLY, […], TRA[…] NASALLY AD[…]” (C[…], priority 2014, published 2017)", "key": {"MOR": {"molecular_target": "T1, MOR (Rattus norvegicus, UniProt P33535)", "T1 construct": "from tissue", "T1 sequence (P33535 whole entry)": "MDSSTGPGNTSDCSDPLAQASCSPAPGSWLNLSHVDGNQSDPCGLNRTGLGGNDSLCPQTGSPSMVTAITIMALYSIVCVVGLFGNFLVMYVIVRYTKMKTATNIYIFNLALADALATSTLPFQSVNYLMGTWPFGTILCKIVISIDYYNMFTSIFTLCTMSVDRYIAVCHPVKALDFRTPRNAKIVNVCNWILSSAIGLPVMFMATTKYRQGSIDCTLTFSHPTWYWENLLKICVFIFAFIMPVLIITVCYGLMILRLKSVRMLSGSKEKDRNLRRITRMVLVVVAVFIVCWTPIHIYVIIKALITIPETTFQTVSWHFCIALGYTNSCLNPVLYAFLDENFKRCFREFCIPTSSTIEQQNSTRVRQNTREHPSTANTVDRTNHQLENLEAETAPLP", "assay": "Opioid receptor binding, MOR, rat brain membranes"}, "DOR": {"molecular_target": "T2, DOR (Rattus norvegicus, UniProt P33533)", "T2 construct": "from tissue", "T2 sequence (P33533 whole entry)": "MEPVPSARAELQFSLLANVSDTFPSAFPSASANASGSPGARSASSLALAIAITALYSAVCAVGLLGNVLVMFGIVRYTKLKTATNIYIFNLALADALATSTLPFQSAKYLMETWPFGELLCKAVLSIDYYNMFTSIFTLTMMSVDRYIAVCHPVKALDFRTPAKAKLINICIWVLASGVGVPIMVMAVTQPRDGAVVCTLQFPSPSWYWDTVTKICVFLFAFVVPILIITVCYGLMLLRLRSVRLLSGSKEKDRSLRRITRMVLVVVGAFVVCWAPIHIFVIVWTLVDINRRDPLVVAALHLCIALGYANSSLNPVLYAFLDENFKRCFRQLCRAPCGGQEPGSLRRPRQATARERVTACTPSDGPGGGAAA", "assay": "Opioid receptor binding, DOR, rat brain membranes"}, "KOR": {"molecular_target": "T3, KOR (Cavia porcellus, UniProt P41144)", "T3 construct": "from tissue", "T3 sequence (P41144 whole entry)": "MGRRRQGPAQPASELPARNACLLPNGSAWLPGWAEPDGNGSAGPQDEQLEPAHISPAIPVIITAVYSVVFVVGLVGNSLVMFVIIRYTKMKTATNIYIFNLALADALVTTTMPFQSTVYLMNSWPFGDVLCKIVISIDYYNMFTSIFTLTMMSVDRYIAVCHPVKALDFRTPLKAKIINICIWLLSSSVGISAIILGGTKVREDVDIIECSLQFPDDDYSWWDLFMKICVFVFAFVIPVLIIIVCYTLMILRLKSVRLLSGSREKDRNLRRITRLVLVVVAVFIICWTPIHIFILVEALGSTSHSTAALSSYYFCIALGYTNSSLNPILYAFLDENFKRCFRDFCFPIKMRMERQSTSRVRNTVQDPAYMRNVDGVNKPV", "assay": "Opioid receptor binding, KOR, guinea pig brain membranes"}, "[1]": {"conditions": "Binding Ki (nM) MOR, in vitro binding assay, rat brain membranes"}, "[2]": {"conditions": "Binding Ki (nM) DOR, in vitro binding assay, rat brain membranes"}, "[3]": {"conditions": "Binding Ki (nM) KOR, in vitro binding assay, guinea pig brain membranes"}, "[4]": {"conditions": "in vitro binding assay, rat brain membranes, read-out: Binding Ki (nM) MOR"}, "[5]": {"conditions": "in vitro binding assay, rat brain membranes, read-out: Binding Ki (nM) DOR"}, "[6]": {"conditions": "in vitro binding assay, guinea pig brain membranes, read-out: Binding Ki (nM) KOR"}, "[7]": {"conditions": "Binding Ki MOR, Table 2-6, rat brain membranes"}, "[8]": {"conditions": "Binding Ki DOR, Table 2-6, rat brain membranes"}, "[9]": {"conditions": "Binding Ki KOR, Table 2-6, guinea pig brain membranes"}}, "note": "Like-named read-outs stand apart in the source and are kept apart here."}
{"smiles": "CO[C@@]12CC[C@@H](N[C@H](C(=O)OC(C)(C)C)[C@@H](C)O)[C@@H]3Oc4c(O)ccc5c4[C@@]31CCN(C)[C@@H]2C5", "note": "[35-t-Bu ester]", "values": [{"measurement": "Ki", "setting": "MOR; [1]", "value": 0.51, "unit": "nM"}, {"measurement": "Ki", "setting": "DOR; [2]", "value": 0.65, "unit": "nM"}, {"measurement": "Ki", "setting": "KOR; [3]", "value": 102, "unit": "nM"}]}
{"smiles": "CO[C@@]12CC[C@H](N[C@@H](CO)C(=O)OC(C)(C)C)[C@@H]3Oc4c(O)ccc5c4[C@@]31CCN(C)[C@@H]2C5", "note": "[36-t-Bu ester]", "values": [{"measurement": "Ki", "setting": "MOR; [1]", "value": 0.2, "unit": "nM"}, {"measurement": "Ki", "setting": "DOR; [2]", "value": 0.17, "unit": "nM"}, {"measurement": "Ki", "setting": "KOR; [3]", "value": 6.2, "unit": "nM"}]}
{"smiles": "CO[C@@]12CC[C@@H](N[C@@H](CO)C(=O)OC(C)(C)C)[C@@H]3Oc4c(O)ccc5c4[C@@]31CCN(C)[C@@H]2C5", "note": "[37-t-Bu ester]", "values": [{"measurement": "Ki", "setting": "MOR; [4]", "value": 0.6, "unit": "nM"}, {"measurement": "Ki", "setting": "DOR; [5]", "value": 0.64, "unit": "nM"}, {"measurement": "Ki", "setting": "KOR; [6]", "value": 83.3, "unit": "nM"}]}
{"smiles": "CO[C@@]12CC[C@H](N[C@@H](CCCCN)C(=O)OC(C)(C)C)[C@@H]3Oc4c(O)ccc5c4[C@@]31CCN(C)[C@@H]2C5", "note": "[38-t-Bu ester]", "values": [{"measurement": "Ki", "setting": "MOR; [4]", "value": 0.17, "unit": "nM"}, {"measurement": "Ki", "setting": "DOR; [5]", "value": 0.092, "unit": "nM"}, {"measurement": "Ki", "setting": "KOR; [6]", "value": 0.89, "unit": "nM"}]}
{"smiles": "CO[C@@]12CC[C@@H](N[C@@H](CCCCN)C(=O)OC(C)(C)C)[C@@H]3Oc4c(O)ccc5c4[C@@]31CCN(C)[C@@H]2C5", "note": "[39-t-Bu ester]", "values": [{"measurement": "Ki", "setting": "MOR; [4]", "value": 0.58, "unit": "nM"}, {"measurement": "Ki", "setting": "DOR; [5]", "value": 0.88, "unit": "nM"}, {"measurement": "Ki", "setting": "KOR; [6]", "value": 21.4, "unit": "nM"}]}
{"smiles": "CO[C@@]12CC[C@H](N[C@@H](CC(C)C)C(=O)OC(C)(C)C)[C@@H]3Oc4c(O)ccc5c4[C@@]31CCN(C)[C@@H]2C5", "note": "[40-t-Bu ester]", "values": [{"measurement": "Ki", "setting": "MOR; [1]", "value": 0.087, "unit": "nM"}, {"measurement": "Ki", "setting": "DOR; [2]", "value": 0.13, "unit": "nM"}, {"measurement": "Ki", "setting": "KOR; [3]", "value": 8.07, "unit": "nM"}]}
{"smiles": "CO[C@@]12CC[C@@H](N[C@@H](CC(C)C)C(=O)OC(C)(C)C)[C@@H]3Oc4c(O)ccc5c4[C@@]31CCN(C)[C@@H]2C5", "note": "[41-t-Bu ester]", "values": [{"measurement": "Ki", "setting": "MOR; [1]", "value": 0.57, "unit": "nM"}, {"measurement": "Ki", "setting": "DOR; [2]", "value": 0.42, "unit": "nM"}, {"measurement": "Ki", "setting": "KOR; [3]", "value": 240, "unit": "nM"}]}
{"smiles": "CO[C@@]12CC[C@@H](N[C@@H](Cc3c[nH]c4ccccc34)C(=O)OC(C)(C)C)[C@@H]3Oc4c(O)ccc5c4[C@@]31CCN(C)[C@@H]2C5", "note": "[46-t-Bu ester]", "values": [{"measurement": "Ki", "setting": "MOR; [4]", "value": 0.26, "unit": "nM"}, {"measurement": "Ki", "setting": "DOR; [5]", "value": 0.36, "unit": "nM"}, {"measurement": "Ki", "setting": "KOR; [6]", "value": 9.89, "unit": "nM"}]}
{"smiles": "CCO[C@@]12CC[C@H](N[C@@H](Cc3ccccc3)C(=O)OC(C)(C)C)[C@@H]3Oc4c(O)ccc5c4[C@@]31CCN(CC1CC1)[C@@H]2C5", "note": "[55-tBu ester]", "values": [{"measurement": "Ki", "setting": "MOR; [7]", "value": 0.63, "unit": "nM"}, {"measurement": "Ki", "setting": "DOR; [8]", "value": 2.38, "unit": "nM"}, {"measurement": "Ki", "setting": "KOR; [9]", "value": 4.12, "unit": "nM"}]}
{"smiles": "CCO[C@@]12CC[C@@H](N[C@@H](Cc3ccccc3)C(=O)OC(C)(C)C)[C@@H]3Oc4c(O)ccc5c4[C@@]31CCN(CC1CC1)[C@@H]2C5", "note": "[56-tBu ester]", "values": [{"measurement": "Ki", "setting": "MOR; [7]", "value": 2, "unit": "nM"}, {"measurement": "Ki", "setting": "DOR; [8]", "value": 6.33, "unit": "nM"}, {"measurement": "Ki", "setting": "KOR; [9]", "value": 17.9, "unit": "nM"}]}
{"smiles": "CO[C@@]12CC[C@H](N[C@@H](Cc3ccccc3)C(=O)OC(C)(C)C)[C@@H]3Oc4c(O)ccc5c4[C@@]31CCN(CC1CC1)[C@@H]2C5", "note": "[57-tBu ester]", "values": [{"measurement": "Ki", "setting": "MOR; [7]", "value": 0.68, "unit": "nM"}, {"measurement": "Ki", "setting": "DOR; [8]", "value": 0.58, "unit": "nM"}, {"measurement": "Ki", "setting": "KOR; [9]", "value": 1.78, "unit": "nM"}]}
{"smiles": "CO[C@@]12CC[C@@H](N[C@@H](Cc3ccccc3)C(=O)OC(C)(C)C)[C@@H]3Oc4c(O)ccc5c4[C@@]31CCN(CC1CC1)[C@@H]2C5", "note": "[58-tBu ester]", "values": [{"measurement": "Ki", "setting": "MOR; [7]", "value": 2.41, "unit": "nM"}, {"measurement": "Ki", "setting": "DOR; [8]", "value": 4.56, "unit": "nM"}, {"measurement": "Ki", "setting": "KOR; [9]", "value": 13.1, "unit": "nM"}]}
{"smiles": "CC(C)(C)OC(=O)[C@H](Cc1ccccc1)N[C@H]1CC[C@@]2(O)[C@H]3Cc4ccc(O)c5c4[C@@]2(CCN3CC2CC2)[C@H]1O5", "note": "[59-tBu ester]", "values": [{"measurement": "Ki", "setting": "MOR; [7]", "value": 1, "unit": "nM"}, {"measurement": "Ki", "setting": "DOR; [8]", "value": 2.15, "unit": "nM"}, {"measurement": "Ki", "setting": "KOR; [9]", "value": 5, "unit": "nM"}]}
{"smiles": "CC(C)(C)OC(=O)[C@H](Cc1ccccc1)N[C@@H]1CC[C@@]2(O)[C@H]3Cc4ccc(O)c5c4[C@@]2(CCN3CC2CC2)[C@H]1O5", "note": "[60-tBu ester]", "values": [{"measurement": "Ki", "setting": "MOR; [7]", "value": 5.49, "unit": "nM"}, {"measurement": "Ki", "setting": "DOR; [8]", "value": 1.12, "unit": "nM"}, {"measurement": "Ki", "setting": "KOR; [9]", "value": 17.6, "unit": "nM"}]}
{"smiles": "CO[C@@]12CC[C@H](NCC(=O)OC(C)(C)C)[C@@H]3Oc4c(O)ccc5c4[C@@]31CCN(CC1CC1)[C@@H]2C5", "note": "[61-tBu ester]", "values": [{"measurement": "Ki", "setting": "MOR; [7]", "value": 0.43, "unit": "nM"}, {"measurement": "Ki", "setting": "DOR; [8]", "value": 0.5, "unit": "nM"}, {"measurement": "Ki", "setting": "KOR; [9]", "value": 1.41, "unit": "nM"}]}
{"smiles": "CO[C@@]12CC[C@@H](NCC(=O)OC(C)(C)C)[C@@H]3Oc4c(O)ccc5c4[C@@]31CCN(CC1CC1)[C@@H]2C5", "note": "[62-Bu ester]", "values": [{"measurement": "Ki", "setting": "MOR; Table 2-6, rat brain membranes, read-out: Binding Ki MOR", "value": 2.66, "unit": "nM"}, {"measurement": "Ki", "setting": "DOR; Table 2-6, rat brain membranes, read-out: Binding Ki DOR", "value": 0.96, "unit": "nM"}, {"measurement": "Ki", "setting": "KOR; Table 2-6, guinea pig brain membranes, read-out: Binding Ki KOR", "value": 8.36, "unit": "nM"}]}
{"smiles": "CO[C@@]12CC[C@@H](NCCC(=O)OC(C)(C)C)[C@@H]3Oc4c(O)ccc5c4[C@@]31CCN(CC1CC1)[C@@H]2C5", "note": "[64-tBu ester]", "values": [{"measurement": "Ki", "setting": "MOR; [7]", "value": 1.52, "unit": "nM"}, {"measurement": "Ki", "setting": "DOR; [8]", "value": 0.91, "unit": "nM"}, {"measurement": "Ki", "setting": "KOR; [9]", "value": 2.13, "unit": "nM"}]}
{"smiles": "CO[C@@]12CC[C@H](NCCCC(=O)OC(C)(C)C)[C@@H]3Oc4c(O)ccc5c4[C@@]31CCN(CC1CC1)[C@@H]2C5", "note": "[65-tBu ester]", "values": [{"measurement": "Ki", "setting": "MOR; [7]", "value": 0.46, "unit": "nM"}, {"measurement": "Ki", "setting": "DOR; [8]", "value": 2.69, "unit": "nM"}, {"measurement": "Ki", "setting": "KOR; [9]", "value": 0.6, "unit": "nM"}]}
{"smiles": "CO[C@@]12CC[C@@H](NCCCC(=O)OC(C)(C)C)[C@@H]3Oc4c(O)ccc5c4[C@@]31CCN(CC1CC1)[C@@H]2C5", "note": "[66-tBu ester]", "values": [{"measurement": "Ki", "setting": "MOR; [7]", "value": 2.13, "unit": "nM"}, {"measurement": "Ki", "setting": "DOR; [8]", "value": 3.78, "unit": "nM"}, {"measurement": "Ki", "setting": "KOR; [9]", "value": 2.81, "unit": "nM"}]}
